In ChEMBL document CHEMBL5038635, “Discovery of Salidroside-Derivated Glycoside Analogues as Novel Angiogenesis Agents to Treat Diabetic Hind Limb Ischemia” (J Med Chem, 2022):
Values after ≈ are worked out from the molar mass of the structure shown. Active and inactive are the calls of the source. The rule behind the calls is not given here.

Assays:
[1] = Metabolic stability in rat leg muscle homogenates assessed as compound remaining after 30 min by HPLC analysis; format: ADME, tissue-based, muscle of leg; conditions: read-out: Stability
C2C12 [2] = experiment: Reversal of hyperglycemia-induced VEGF-A protein level reduction in mouse C2C12 cells measured at 30 uM by ELISA; format: functional, cell-based
Mus musculus [3] = experiment: Antidiabetic activity in diabetic HLI C57BL/6 mouse model assessed as effect on blood glucose level at 15 mg/kg administered intramuscular; format: functional, organism-based
HUVEC [4] = experiment: Induction proliferation of human HUVEC cells assessed as increase in number of EdU-positive cells using conditioned medium of mouse C2C12 cells treated at 30 uM under hyperglycemic condition for 12 hrs followed by hypoxia for 24 hrs by EdU-incorporation assay; format: functional; conditions: time 36.0 hrs
[5] = Permeability coefficient across basolateral to apical side in human Caco-2 cells by HPLC-UV analysis
MOVAS-1 [6] = experiment: Angiogenesis activity in mouse MOVAS-1 cells assessed as suppression of cell migration using conditioned medium of mouse C2C12 cells treated at 30 uM under hyperglycemic condition for 12 hrs followed by hypoxia for 24 hrs by crystal violet dye based transwell assay; format: functional; conditions: time 36.0 hrs
MOVAS-1 [7] = experiment: Angiogenic activity in mouse MOVAS-1 cells assessed as suppression of F-actin polymerization at 30 uM using conditioned medium of mouse C2C12 cells treated at 30 uM under hyperglycemic condition for 12 hrs followed by hypoxia for 12 hrs by phalloidin staining based confocal microscopy; format: functional, cell-based; conditions: time 24.0 hrs
[8] = Dissociation constant, pKa of compound by UV-visible spectrometric method; format: physicochemical
Mus musculus [9] = experiment: Angiogenesis activity in diabetic HLI C57BL/6 mouse model assessed as VEGF-A protein expression at 100 mg/kg, im administered for 21 days followed by surgery by Western blot analysis; format: functional, organism-based; conditions: time 21.0 day
HUVEC [10] = experiment: Induction proliferation of human HUVEC cells assessed as increase in number of EdU-positive cells using conditioned medium of mouse C2C12 cells with silenced HIF-1alpha treated at 30 uM under hyperglycemic condition for 12 hrs followed by hypoxia for 24 hrs by EdU-incorporation assay; format: functional, cell-based; conditions: time 36.0 hrs
HUVEC [11] = experiment: Angiogenesis activity in human HUVEC cells assessed as increase of cell migration using conditioned medium of mouse C2C12 cells with silenced HIF-1alpha treated at 30 uM under hyperglycemic condition for 12 hrs followed by hypoxia for 24 hrs by crystal violet dye based transwell assay; format: functional; conditions: time 36.0 hrs
C2C12 [12] = experiment: Induction of F-actin polymerization in mouse C2C12 cells at 30 uM pretreated with compound for 12 hr followed by hypoxic condition for 24 hrs by phalloidin staining based confocal microscopy; format: functional, cell-based; conditions: time 36.0 hrs
C2C12 [13] = experiment: Reversal of hyperglycemia-induced VEGF-A protein level reduction in mouse C2C12 cells measured at 30 uM by Western blot analysis; format: functional, cell-based
[14] = Octanol/Water partition coefficient, log P of the compound by HPLC-UV analysis
HUVEC [15] = experiment: Angiogenic activity in human HUVEC cells assessed as suppression of F-actin polymerization at 30 uM using conditioned medium of mouse C2C12 cells treated at 30 uM under hyperglycemic condition for 12 hrs followed by hypoxia for 12 hrs by phalloidin staining based confocal microscopy; format: functional, cell-based; conditions: time 24.0 hrs
C2C12 [16] = experiment: Reversal of hyperglycemia-induced PDGF-BB protein level reduction in mouse C2C12 cells measured at 30 uM by ELISA; format: functional, cell-based
Mus musculus [17] = experiment: Antidiabetic activity in diabetic HLI C57BL/6 mouse model assessed as increase in blood perfusion recovery at 100 mg/kg administered intramuscularly; format: functional, organism-based
[18] = Efflux ratio of Apparent permeability across basolateral to apical side over apical to basolateral side in human Caco-2 cells
[19] = Protein binding in human plasma by balanced dialysis method; format: ADME, cell-free; conditions: read-out: PPB (converted)
C2C12 [20] = experiment: Reversal of hyperglycemia-induced PDGF-BB protein level reduction in mouse C2C12 cells measured at 30 uM by Western blot analysis; format: functional, cell-based
[21] = Permeability coefficient across apical to basolateral side in human Caco-2 cells by HPLC-UV analysis
[22] = Water solubility of the compound by HPLC analysis
Mus musculus [23] = experiment: Antidiabetic activity in diabetic HLI C57BL/6 mouse model assessed as morphological changes at 100 mg/kg administered intramuscularly; format: functional, organism-based
Mus musculus [24] = experiment: Angiogenesis activity in diabetic HLI C57BL/6 mouse model assessed as HIF-1alpha protein expression at 100 mg/kg, im administered for 21 days followed by surgery by Western blot analysis; format: functional, organism-based; conditions: time 21.0 day
MOVAS-1 [25] = experiment: Induction proliferation of mouse MOVAS-1 cells assessed as increase in number of EdU-positive cells using conditioned medium of mouse C2C12 cells treated at 30 uM under hyperglycemic condition for 12 hrs followed by hypoxia for 24 hrs by EdU-incorporation assay; format: functional; conditions: time 36.0 hrs
MOVAS-1 [26] = experiment: Angiogenesis activity in mouse MOVAS-1 assessed as increase of cell migration using conditioned medium of mouse C2C12 cells with silenced HIF-1alpha treated at 30 uM under hyperglycemic condition for 12 hrs followed by hypoxia for 24 hrs by crystal violet dye based transwell assay; format: functional; conditions: time 36.0 hrs
MOVAS-1 [27] = experiment: Induction proliferation of mouse MOVAS-1 assessed as increase in number of EdU-positive cells using conditioned medium of mouse C2C12 cells with silenced HIF-1alpha treated at 30 uM under hyperglycemic condition for 12 hrs followed by hypoxia for 24 hrs by EdU-incorporation assay; format: functional, cell-based; conditions: time 36.0 hrs
HUVEC [28] = experiment: Angiogenesis activity in human HUVEC cells assessed as suppression of cell migration using conditioned medium of mouse C2C12 cells treated at 30 uM under hyperglycemic condition for 12 hrs followed by hypoxia for 24 hrs by crystal violet dye based transwell assay; format: functional; conditions: time 36.0 hrs
Mus musculus [29] = experiment: Angiogenesis activity in diabetic HLI C57BL/6 mouse model assessed as PDGF-BB protein expression at 100 mg/kg, im administered for 21 days followed by surgery by Western blot analysis; format: functional, organism-based; conditions: time 21.0 day
[30] = Microsomal stability in rat liver microsomes assessed as compound remaining after 30 min by HPLC analysis; format: ADME, Microsome; conditions: read-out: Stability
C2C12 [31] = experiment: Induction of cell migration in mouse C2C12 cells at 30 uM under hyperglycemic condition incubated for 24 hrs by crystal violet dye based transwell chamber assay; format: functional
[32] = Stability in rat plasma assessed as compound remaining at 6.25 to 25 mg/L after 12 hrs by HPLC analysis; format: ADME, cell-free; conditions: at 6.25 to 25 µg/mL, dose 6.25-25 mg/L, read-out: Stability

- remaining at 0.5 h [1]: 35.8%
- Papp B→A [5]: 29.5 nm/s
- pKa [8]: 10.1
- logP [14]: -2.42
- efflux ratio [18]: 1.09
- fraction unbound [19]: 0.873
- Papp A→B [21]: 27.1 nm/s
- solubility [22]: 472 mg/mL (≈ 1570 mM)
- remaining at 0.5 h [30]: 43.3%
- remaining at 12 h [32]: 99.4%
Structure (SMILES): OC[C@H]1O[C@@H](OCCc2ccc(O)cc2)[C@H](O)[C@@H](O)[C@@H]1O [SALIDROSIDE]
- Activity (C2C12 [2]): Active
- Activity (Mus musculus [3]): Active
- Activity (HUVEC [4]): Active
- Activity (MOVAS-1 [6]): inactive
- Activity (MOVAS-1 [7]): inactive
- Activity (Mus musculus [9]): Active
- Activity (HUVEC [10]): Active
- Activity (HUVEC [11]): Active
- Activity (C2C12 [12]): Active
- Activity (C2C12 [13]): Active
- Activity (HUVEC [15]): inactive
- Activity (C2C12 [16]): Active
- Activity (Mus musculus [17]): Active
- Activity (C2C12 [20]): Active
- Activity (Mus musculus [23]): Active
- Activity (Mus musculus [24]): Active
- Activity (MOVAS-1 [25]): Active
- Activity (MOVAS-1 [26]): Active
- Activity (MOVAS-1 [27]): Active
- Activity (HUVEC [28]): inactive
- Activity (Mus musculus [29]): Active
- Activity (C2C12 [31]): Active
